Source: patent US10501518B2 (priority 2013, dated 2019)
Where two headings read alike, the source gives them in different places. Non-standard residues stand in square brackets, D forms with d. Residues, ends and D or L forms follow the SMILES beside them. No end group written: not given here. β3hW = N[C@H](CC(=O)O)Cc1c[nH]c2ccccc12; β3hE = N[C@@H](CCC(=O)O)CC(=O)O; β3hF = N[C@H](CC(=O)O)Cc1ccccc1; β3hN = NC(=O)C[C@H](N)CC(=O)O; β3hK = NCCCC[C@H](N)CC(=O)O; β3hM = CSCC[C@H](N)CC(=O)O; β3hD = NC(CC(=O)O)CC(=O)O

Assays:
PTHR1 = target: T1, PTHR1 (Homo sapiens, UniProt Q03431); experiment: Inhibition of PTH-induced PTHR1 cAMP signaling by bPTH(7-34) analogs; details: Table 18; [Inhibitor] = 1 μM
T1 sequence (Q03431 27-593): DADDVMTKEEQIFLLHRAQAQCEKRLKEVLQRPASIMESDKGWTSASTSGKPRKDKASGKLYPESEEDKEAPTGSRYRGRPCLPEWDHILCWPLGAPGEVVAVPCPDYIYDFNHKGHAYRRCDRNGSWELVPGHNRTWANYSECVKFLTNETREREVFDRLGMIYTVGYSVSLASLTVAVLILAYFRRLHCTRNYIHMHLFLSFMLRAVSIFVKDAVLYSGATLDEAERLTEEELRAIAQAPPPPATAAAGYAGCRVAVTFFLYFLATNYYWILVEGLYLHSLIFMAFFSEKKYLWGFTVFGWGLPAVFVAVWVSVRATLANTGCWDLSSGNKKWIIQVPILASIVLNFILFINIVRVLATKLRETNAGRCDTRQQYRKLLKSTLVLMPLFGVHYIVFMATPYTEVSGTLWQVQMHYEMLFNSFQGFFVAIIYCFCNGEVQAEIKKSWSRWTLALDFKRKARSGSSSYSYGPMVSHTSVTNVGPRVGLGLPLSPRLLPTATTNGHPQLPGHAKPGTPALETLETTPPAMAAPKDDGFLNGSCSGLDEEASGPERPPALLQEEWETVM

R^0 form of rat PTHR-1 = target: T2, R^0 form of rat PTHR-1 (Rattus norvegicus, UniProt P25961); experiment: Radio-ligand competition binding to R^0 form of rat PTHR-1; details: Table 5; ratio of R^0 to RG IC50, rat PTHR-1
T2 construct: expressed in transfected cells; host or cells: COS-7
T2 sequence (P25961 27-591): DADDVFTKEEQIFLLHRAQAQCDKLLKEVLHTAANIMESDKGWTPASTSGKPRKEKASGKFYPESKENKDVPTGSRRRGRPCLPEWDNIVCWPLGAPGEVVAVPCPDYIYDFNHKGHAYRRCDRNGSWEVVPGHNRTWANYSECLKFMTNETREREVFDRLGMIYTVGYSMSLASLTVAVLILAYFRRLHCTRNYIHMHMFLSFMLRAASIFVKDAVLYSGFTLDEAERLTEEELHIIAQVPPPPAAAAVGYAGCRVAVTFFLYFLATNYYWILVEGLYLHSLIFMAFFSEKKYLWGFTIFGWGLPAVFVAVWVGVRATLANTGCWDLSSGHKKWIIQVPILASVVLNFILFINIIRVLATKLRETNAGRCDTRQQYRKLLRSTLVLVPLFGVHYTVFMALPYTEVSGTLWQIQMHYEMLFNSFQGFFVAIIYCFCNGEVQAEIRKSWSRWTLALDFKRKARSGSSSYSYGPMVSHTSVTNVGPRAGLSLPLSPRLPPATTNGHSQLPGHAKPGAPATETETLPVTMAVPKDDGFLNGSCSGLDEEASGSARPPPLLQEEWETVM
Text: (§1) Data are means (±SEM) of n≥4 experiments, each performed in duplicate.

WT rat PTHR-1 = target: T3, WT rat PTHR-1 (Rattus norvegicus, UniProt P25961); experiment: cAMP GloSensor dose-response in GR-35 cells expressing rat PTHR-1; format: cell-based; details: Table 7; for Max: 12-16 minutes after ligand addition, mean ± SEM
T3 construct: expressed in transfected cells
T3 sequence (P25961 27-591): T2 sequence (P25961 27-591)
Description: FIGS. 9A, 9B, and 9C constitute a series of graphs depicting cAMP responses in GR-35 cells expressing rat PTHR-1-WT. […] Data are means (±SEM) of n>4 experiments, each performed in duplicate.
For cAMP dose-response assays, monolayers of confluent HEK 293 cells were pre-incubated with buffer containing d-luciferin (0.5 mM) in 96 well plates at room temperature until a stable baseline level of luminescence was established (30 min). Varying concentrations of agonist were then added, and the time course of luminescence response was recorded using a Perkin Elmer plate reader following α/β-peptide addition.

R^0 form of human PTHR-1 = target: T4, R^0 form of human PTHR-1 (Homo sapiens, UniProt Q03431); experiment: Radio-ligand competition binding to R^0 form of human PTHR-1 (COS-7 membranes, 125I-PTH(1-34) tracer, GTPγS)
T4 construct: expressed in transfected cells; host or cells: COS-7
T4 sequence (Q03431 27-593): T1 sequence (Q03431 27-593)
Text: as §1

RG form of human PTHR-1 = target: T5, RG form of human PTHR-1 (Homo sapiens, UniProt Q03431); experiment: Radio-ligand competition binding to RG form of human PTHR-1 (COS-7 membranes, 125I-M-PTH(1-15) tracer, high affinity Gαs mutant)
T5 construct: expressed in transfected cells; host or cells: COS-7
T5 sequence (Q03431 27-593): T1 sequence (Q03431 27-593)
Text: as §1

WT human PTHR-1 = target: T6, WT human PTHR-1 (Homo sapiens, UniProt Q03431); experiment: cAMP GloSensor dose-response in GP-2.3 cells expressing human PTHR-1; format: cell-based; details: for cAMP (hPTHR-1) Max: luminescence counts per second relative to PTH(1-34); for cAMP (hPTHR-1) Max / Max: 12-16 minutes after ligand addition; for Max: mean ± SEM
T6 construct: bioactivity of the resulting compound in full-length hPTHR-1 and a truncated version; expressed in transfected cells
T6 sequence (Q03431 27-593): T1 sequence (Q03431 27-593)
Summary of the method: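 Confluent cells preloaded with 0.5 mM d-luciferin at room temperature until luminescence baseline stabilised (30 min), then given varying agonist concentrations. Luminescence time course recorded after α/β-peptide addition. Means ±SEM of n>4 experiments, each in duplicate.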

RG form of rat PTHR-1 = target: T7, RG form of rat PTHR-1 (Rattus norvegicus, UniProt P25961); experiment: Radio-ligand competition binding to RG form of rat PTHR-1; details: Table 5; rat PTHR-1; mean ± SEM; read-out: RG -log (IC50) (converted)
T7 construct: expressed in transfected cells; host or cells: COS-7
T7 sequence (P25961 27-591): T2 sequence (P25961 27-591)
Text: as §1

Row | EC50(+)inhibitor/EC50(−)inhibitor (PTHR1) | cAMP (hPTHR-1) Max (WT human PTHR-1; Table 1) | Molecule | Max (WT rat PTHR-1; GR-35 cells) | Max (WT human PTHR-1; Table 6, GP-2.3 cells) | also measured
1 | 1.60 |  | LMHNLGKHLNSMERVEWLRKKLQDVHNF-NH2 [hPTH(7-34), reference compound] |  |  | 
2 |  | 1.01 | CC[C@H](C)[C@H](NC(=O)[C@H](CCC(=O)O)NC(=O)[C@H](CO)NC(=O)[C@@H](NC(=O)[C@@H](N)CO)C(C)C)C(=O)N[C@@H](CCC(N)=O)C(=O)N[C@@H](CC(C)C)C(=O)N[C@@H](CCSC)C(=O)N[C@@H](Cc1c[nH]cn1)C(=O)N[C@@H](CC(N)=O)C(=O)N[C@@H](CC(C)C)C(=O)NCC(=O)N[C@@H](CCCCN)C(=O)N[C@@H](Cc1c[nH]cn1)C(=O)N[C@@H](CC(C)C)C(=O)N[C@@H](CC(N)=O)C(=O)N[C@@H](CO)CC(=O)N[C@@H](CCSC)C(=O)N[C@@H](CCC(=O)O)C(=O)N[C@@H](CCCNC(=N)N)C(=O)N[C@H](CC(=O)N[C@@H](CCC(=O)O)C(=O)N[C@@H](Cc1c[nH]c2ccccc12)C(=O)N[C@@H](CC(C)C)C(=O)N[C@@H](CCCNC(=N)N)CC(=O)N[C@@H](CCCCN)C(=O)N[C@@H](CCCCN)C(=O)N[C@@H](CC(C)C)C(=O)N[C@@H](CCC(N)=O)CC(=O)N[C@@H](CC(=O)O)C(=O)N[C@H](C(=O)N[C@@H](Cc1c[nH]cn1)C(=O)N[C@@H](CC(N)=O)CC(=O)N[C@@H](Cc1ccccc1)C(N)=O)C(C)C)C(C)C [C5] | 48 ± 17 luminescence counts per second × 10−3 | 219 ± 39 luminescence counts per second × 10^−3 | IC50 (RG form of human PTHR-1; Table 1, 125I-M-PTH(1-15) tracer, Gαs mutant, read-out: RG IC50, nM, Binding (hPTHR-1)): 0.4 nM; EC50 (WT human PTHR-1; Table 1, GP-2.3 cells, read-out: cAMP (hPTHR-1) EC50): 0.2 nM
3 |  | 1.03 | CC[C@H](C)[C@H](NC(=O)[C@H](CCC(=O)O)NC(=O)[C@H](CO)NC(=O)[C@@H](NC(=O)[C@@H](N)CO)C(C)C)C(=O)N[C@@H](CCC(N)=O)C(=O)N[C@@H](CC(C)C)C(=O)N[C@@H](CCSC)C(=O)N[C@@H](Cc1c[nH]cn1)C(=O)N[C@@H](CC(N)=O)C(=O)N[C@@H](CC(C)C)C(=O)NCC(=O)N[C@@H](CCCCN)C(=O)N[C@@H](Cc1c[nH]cn1)C(=O)N[C@@H](CC(C)C)C(=O)N[C@@H](CC(N)=O)C(=O)N[C@@H](CO)C(=O)N[C@@H](CCSC)CC(=O)N[C@@H](CCC(=O)O)C(=O)N[C@@H](CCCNC(=N)N)C(=O)N[C@H](C(=O)N[C@@H](CCC(=O)O)CC(=O)N[C@@H](Cc1c[nH]c2ccccc12)C(=O)N[C@@H](CC(C)C)C(=O)N[C@@H](CCCNC(=N)N)C(=O)N[C@@H](CCCCN)CC(=O)N[C@@H](CCCCN)C(=O)N[C@@H](CC(C)C)C(=O)N[C@@H](CCC(N)=O)C(=O)N[C@@H](CC(=O)O)CC(=O)N[C@H](C(=O)N[C@@H](Cc1c[nH]cn1)C(=O)N[C@@H](CC(N)=O)C(=O)N[C@H](CC(N)=O)Cc1ccccc1)C(C)C)C(C)C [D5] | 43 ± 17 luminescence counts per second × 10−3 | 223 ± 36 luminescence counts per second × 10^−3 | IC50 (RG form of rat PTHR-1): 1.74 nM
4 | 16.49 |  | FMHNLWKWLSSMERVEWLRKKLQDVHNF-NH2 [D6 bPTH(7-34) dTrp12] |  |  | 
5 | 60.12 |  | FMHNLWKHLSSMERVEWLRKKLQDVHNF-NH2 [bPTH(7-34)dTrp12, reference compound] |  |  | 
6 | 3.50 |  | XMHNLWKXLSSXERVZWLRZKLQXVHNX-NH2 [FCycD6 bPTH(7-34) dTrp12 ACPC7] |  |  | 

Row | Molecule | EC50(+)inhibitor/EC50(−)inhibitor (PTHR1) | cAMP (hPTHR-1) Max (WT human PTHR-1; Table 1) | Max (WT rat PTHR-1; GR-35 cells) | Max (WT human PTHR-1; Table 6, GP-2.3 cells) | also measured
7 | XMHNLWKWLSSMERVEWLRKKLQDVHNF-NH2 [D6 bPTH(7-34) dTrp12 ACPC7] | 4.38 |  |  |  | 
8 | CC[C@H](C)[C@H](NC(=O)[C@H](CCC(=O)O)NC(=O)[C@H](CO)NC(=O)[C@@H](NC(=O)[C@@H](N)CO)C(C)C)C(=O)N[C@@H](CCC(N)=O)C(=O)N[C@@H](CC(C)C)C(=O)N[C@@H](CCSC)C(=O)N[C@@H](Cc1c[nH]cn1)C(=O)N[C@@H](CC(N)=O)CC(=O)N[C@@H](CC(C)C)C(=O)NCC(=O)N[C@@H](CCCCN)C(=O)N[C@H](CC(=O)N[C@@H](CC(C)C)C(=O)N[C@@H](CC(N)=O)C(=O)N[C@@H](CO)C(=O)N[C@@H](CCSC)CC(=O)N[C@@H](CCC(=O)O)C(=O)N[C@@H](CCCNC(=N)N)C(=O)N[C@H](C(=O)N[C@@H](CCC(=O)O)CC(=O)N[C@@H](Cc1c[nH]c2ccccc12)C(=O)N[C@@H](CC(C)C)C(=O)N[C@@H](CCCNC(=N)N)C(=O)N[C@@H](CCCCN)CC(=O)N[C@@H](CCCCN)C(=O)N[C@@H](CC(C)C)C(=O)N[C@@H](CCC(N)=O)C(=O)N[C@@H](CC(=O)O)CC(=O)N[C@H](C(=O)N[C@@H](Cc1c[nH]cn1)C(=O)N[C@@H](CC(N)=O)C(=O)N[C@H](CC(N)=O)Cc1ccccc1)C(C)C)C(C)C)Cc1c[nH]c2ccccc12 [D7] (H-SVSEIQLMH[β3hN]LGK[β3hW]LNS[β3hM]ERV[β3hE]WLR[β3hK]KLQ[β3hD]VHN[β3hF]-NH2) |  | 0.85 | 40 ± 18 luminescence counts per second × 10−3 | 184 ± 18 luminescence counts per second × 10^−3 | R^0/RG (R^0 form of rat PTHR-1): 7; Fold nM PTH(1-34) (WT rat PTHR-1; EC50 relative to PTH(1-34)): 3.89; EC50 (WT rat PTHR-1; GR-35 cells, read-out: EC50): 1.62 nM; IC50 (R^0 form of human PTHR-1): 3.5 nM; R^0/RG (R^0 form of human PTHR-1; Table 4, ratio of R^0 to RG IC50, human PTHR-1): 15; IC50 (RG form of human PTHR-1): 0.24 nM; IC50 (RG form of human PTHR-1; Table 4, human PTHR-1, mean ± SEM, read-out: RG -log (IC50) (converted)): 0.234 nM; EC50 (WT human PTHR-1): 0.39 nM; Fold nM PTH(1-34) (WT human PTHR-1; Table 6, EC50 relative to PTH(1-34)): 2.26; IC50 (RG form of rat PTHR-1): 2.04 nM
